Among the data in patent US12180226B2, “Spirotricycle RIPK1 inhibitors and methods of uses thereof” (Merck Sharp & Dohme LLC, priority 2021, dated 2024) are EC50 values, retold here.

Each structure is given as a SMILES string.

The experiment deals with RIPK1 (recombinant GST-RIPK1 kinase domain, residues 1-327) (Homo sapiens (Human), UniProt Q13546). Description: RIPK1-ADP-Glo Enzymatic Assay. It counts as biochemical. The conditions noted are these: ADP-Glo; 25 nM GST-RIPK1, 300 μM ATP; assay lower limit ~25 nM; read-out: RIPK1 V0 Ec50. A digest of the protocol: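 ADP-Glo luminescence read after 150 min kinase reaction (300 μM ATP, 3 μM dephosphorylated MBP) using 25 nM Sf21-made GST-kinase domain (1-327), preincubated 30 min with compound. HEPES pH 7.3, 1% DMSO; ten-point 1:3 series from 100000 nM, EC50 via four-parameter sigmoidal regression.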
On the technique in general: In ADP-Glo the light output rises with the ADP produced.

Sequence of RIPK1 (recombinant GST-RIPK1 kinase domain, residues 1-327) (Q13546 1-327): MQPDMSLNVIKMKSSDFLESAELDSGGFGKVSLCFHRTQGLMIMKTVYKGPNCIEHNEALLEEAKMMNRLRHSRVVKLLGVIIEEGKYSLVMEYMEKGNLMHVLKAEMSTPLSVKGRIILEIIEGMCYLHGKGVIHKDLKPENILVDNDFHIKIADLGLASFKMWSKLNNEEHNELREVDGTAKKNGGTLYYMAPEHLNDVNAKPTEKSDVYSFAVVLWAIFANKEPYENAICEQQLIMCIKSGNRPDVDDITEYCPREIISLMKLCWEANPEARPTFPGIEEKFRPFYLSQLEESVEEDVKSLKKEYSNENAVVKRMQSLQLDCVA

By EC50 is commonly meant the concentration at which the effect is half-maximal. In the case of `Cc1ncc([C@@H]2CC[C@H]3OC4(CCN(C(=O)c5ccccc5)CC4F)C(=O)N32)cc1F` (stereo partly drawn) [Example 2.10, (5′S,7a′R)-1-(benzenecarbonyl)-3-fluoro-5′-(5-fluoro-6-methylpyridin-3-yl)tetrahydro-3′H-spiro[piperidine-4,2′-pyrrolo[2,1-b][1,3]oxazol]-3′-one], the concentration giving a half-maximal response (EC50) stood at 136 nM. `O=C1N2[C@@H](CC[C@H]2c2ccccc2F)OC12CN(S(=O)(=O)c1cccc(F)c1)C2` [Example 8.6, (5′S,7a′R)-5′-(2-fluorophenyl)-1-((3-fluorophenyl)sulfonyl) tetrahydro-3′H-spiro[azetidine-3,2′-pyrrolo[2,1-b]oxazol]-3′-one]: the EC50 worked out at 421 nM. Take `NC(=O)c1cc(N2CCC3(CC2)O[C@@H]2CC[C@@H](c4cc(F)cc(F)c4)N2C3=O)ncn1` [Example 4.185, 6-[(5′S,7a′R)-5′-(3,5-difluorophenyl)-3′-oxotetrahydro-1H,3′H-spiro[piperidine-4,2′-pyrrolo[2,1-b] [1,3]oxazol]-1-yl]pyrimidine-4-carboxamide]: the 50% effective concentration (EC50) came to 83 nM. Consider `O=C(c1nc2ncccc2s1)N1CCC2(CC1)O[C@@H]1CC[C@@H](c3cc(F)cc(F)c3)N1C2=O` [Example 6.26], for which the EC50 worked out at 321 nM. With `N#Cc1cccc(C(=O)N2CCC3(CC2)O[C@@H]2CC[C@@H](c4cccc(F)c4)N2C3=O)c1F` [Example 6.122, 2-fluoro-3-[(5′S,7a′R)-5′-(3-fluorophenyl)-3′-oxotetrahydro-1H,3′H-spiro[piperi-dine-4,2′-pyrrolo[2,1-b][1,3]oxazole]-1-carbonyl]benzonitrile], the EC50 stood at 47.5 nM. As for `N#Cc1ccc(F)c(C(=O)N2CCC3(CC2)O[C@@H]2CC[C@@H](c4cccc(F)c4)N2C3=O)c1` [Example 6.130, 4-fluoro-3-[(5′S,7a′R)-5′-(3-fluorophenyl)-3′-oxotetrahydro-1H,3′H-spiro[piperidine-4,2′-pyrrolo[2,1-b][1,3]-oxazole]-1-carbonyl] benzonitrile], the concentration for a half-maximal effect (EC50) was under 25 nM.

Take `CC(C)(C)NC(=O)c1nc(N2CCC3(CC2)O[C@@H]2CC[C@@H](c4cc(F)cc(F)c4)N2C3=O)ncc1F` [Example 7.15, N-tert-butyl-2-[(5′S,7a′R)-5′-(3,5-difluorophenyl)-3′-oxotetrahydro-1H,3′H-spiro[piperidine-4,2′-pyrrolo[2,1-b][1,3]oxazol]-1-yl]-5-fluoropyrimidine-4-carboxamide]: the half-maximal effective concentration (EC50) was found to be 171 nM. Regarding `O=C1N2[C@@H](CC[C@H]2c2ccccc2)OC12CCN(c1ncnc3c(F)cnn13)CC2` [Example 4.233, (5′S,7a′R)-1-(8-fluoropyrazolo[1,5-a] [1,3,5]triazin-4-yl)-5′-phenyltetrahydro-3′H-spiro[piperidine-4,2′-pyrrolo[2,1-b] [1,3]oxazol]-3′-one], the EC50 is under 25 nM. As for `O=C1N2[C@@H](CC[C@H]2c2cc(F)cc(F)c2)OC12CCN(C(c1ccccc1)C(F)F)CC2` (stereo partly drawn) [Example 22.1, (5′S,7a′R)-1-(2,2-Difluoro-1-phenylethyl)-5′-(3,5-difluorophenyl)tetrahydro-3′H-spiro[piperidine-4,2′-pyrrolo[2,1-b]oxazol]-3′-one], the figure is 221 nM; as for `COc1cccc([C@@H]2CC[C@H]3OC4(CCN(c5ccc(C#N)c6ncnn56)CC4)C(=O)N32)c1` [Example 20.2, 5-[(5′S,7a′R)-5′-(3-methoxyphenyl)-3′-oxotetrahydro-1H,3′H-spiro[piperidine-4,2′-pyrrolo[2,1-b][1,3]oxazol]-1-yl][1,2,4]triazolo[1,5-a]pyridine-8-carbonitrile], 25 nM. For `O=C1N2[C@@H](CC[C@H]2c2ccccc2)OC12CCN(c1cc(-c3ccsc3)ccn1)CC2` [Example 4.170, (5′S,7a′R)-5′-phenyl-1-[4-(thiophen-3-yl)pyridin-2-yl]tetrahydro-3′H-spiro[piperidine-4,2′-pyrrolo[2,1-b] [1,3]oxazol]-3′-one], the EC50 is under 25 nM. `O=C1N2[C@@H](CC[C@H]2c2ccccc2F)OC12CN(c1cc(Cl)ncn1)C2` [Example 4.107, (5′S,7a′R)-1-(6-chloropyrimidin-4-yl)-5′-(2-fluorophenyl)tetrahydro-3′H-spiro[azetidine-3,2′-pyrrolo[2,1-b]oxazol]-3′-one]: the 50% effective concentration (EC50) came out at 101 nM. As for `CC1CC2(CCN1c1ccnc3c(F)cnn13)O[C@@H]1CC[C@@H](c3ccccc3)N1C2=O` (stereo partly drawn) [Example 4.224, (4R,5′S,7a′R)-1-(3-fluoropyrazolo[1,5-a]pyrimidin-7-yl)-2-methyl-5′-phenyltetrahydro-3′H-spiro[piperidine-4,2′-pyrrolo[2,1-b] [1,3]oxazol]-3′-one], the EC50 was under 25 nM.

Turning to `Cc1ccc(C(=O)N2CCC3(CC2)O[C@@H]2CC[C@@H](c4cc(F)cc(F)c4)N2C3=O)nc1C` [Example 6.93, (5′S,7a′R)-5′-(3,5-difluorophenyl)-1-(5,6-dimethylpyridine-2-carbonyl)tetrahydro-3′H-spiro[piperidine-4,2′-pyrrolo[2,1-b] [1,3]oxazol]-3′-one], the half-maximal effective concentration (EC50) turned out to be 192 nM. As for `Cc1cccc(C(=O)N2CCC3(CC2)O[C@@H]2CC[C@@H](c4cc(F)cc(F)c4)N2C3=O)n1` [Example 6.13, (5′S,7a′R)-5′-(3,5-difluorophenyl)-1-(6-methylpyridine-2-carbonyl)tetrahydro-3′H-spiro[piperidine-4,2′-pyrrolo[2,1-b] [1,3]oxazol]-3′-one], the figure is 60 nM; as for `O=C(c1ccn(C(F)F)n1)N1CCC2(CC1)O[C@@H]1CC[C@@H](c3cc(F)cc(F)c3)N1C2=O` [Example 5.41], 129 nM; as for `Cc1nc(N2CCC3(CC2)O[C@@H]2CC[C@@H](c4ccccc4)N2C3=O)ncc1-c1ncn(C)n1` [Example 21.4, (5′S,7a′R)-1-[4-methyl-5-(1-methyl-1H-1,2,4-triazol-3-yl)pyrimidin-2-yl]-5′-phenyltetrahydro-3′H-spiro[piperidine-4,2′-pyrrolo[2,1-b][1,3]oxazol]-3′-one], 117 nM. Turning to `O=C1N2C(CCC2c2cccc(F)c2F)OC12CCN(c1ccnc3ccnn13)CC2` (stereo not drawn) [Example 20.7, 5′-(2,3-difluorophenyl)-1-(pyrazolo[1,5-a]pyrimidin-7-yl)tetrahydro-3′H-spiro[piperidine-4,2′-pyrrolo[2,1-b][1,3]oxazol]-3′-one], the half-maximal effective concentration (EC50) was under 25 nM. For the compound `O=C(c1sccc1Cl)N1CCC2(CC1)O[C@@H]1CC[C@@H](c3cc(F)cc(F)c3)N1C2=O` [Example 5.31, (5′S,7a′R)-1-(3-chloro-thiophene-2-carbonyl)-5′-(3,5-difluorophenyl)tetra-hydro-3′H-spiro[piperi-dine-4,2′-pyrrolo[2,1-b]oxazol]-3′-one], the concentration for a half-maximal effect (EC50) was under 25 nM. For `O=C(c1cccc(F)c1F)N1CCC2(CC1)O[C@@H]1CC[C@@H](c3ccccc3)N1C2=O` [Example 5.9, (5′S,7a′R)-1-(2,3-difluorobenzene-1-car-bonyl)-5′-phenyltetra-hydro-3′H-spiro[piperi-dine-4,2′-pyrrolo[2,1-b] [1,3]oxazol]-3′-one], the EC50 is under 25 nM. As for `O=C(c1ccccc1)N1CC2(C1)S[C@@H]1CC[C@@H](c3cc(F)cc(F)c3)N1C2=O` [Example 1.25, (5′S,7a′R)-1-benzoyl-5′-(3,5-difluorophenyl)tetrahydro-3′H-spiro[azetidine-3,2′-pyrrolo[2,1-b]thiazol]-3′-one], the figure is 98.3 nM.
